In patent publication US5030638A, “Method of antiviral enhancement” (priority 1990, dated 1991):
≈ marks a conversion by molar mass, not a printed value. Read-outs that look alike come from different tables or passages of the source.

What was measured:
trimming glucosidase I = settings: Hettkamp et al.; cited from earlier work
trimming glucosidase II = settings: Hettkamp et al.; cited from earlier work
glucosidase = settings: Fleet et al.; cited from earlier work
HIV = settings: cited from earlier work; for HIV inhibitory / antiviral activity: literature
HIV-1, strain HTLV-IIIB = assay: Reduction of cytopathogenic effect (CPE) in HIV-1 infected CEM cells, MTT assay; type: cell-based; settings: for inhibition at 10 µg/mL / inhibition at 32 µg/mL / inhibition at 500 µg/mL / inhibition at 100 µL/mL / IC50 / inhibition at 1 µg/mL / inhibition at 3.2 µg/mL: Human immunodeficiency virus 1, IIIB, CCRF-CEM, 216 h; for inhibition at 10 µg/mL: 10 μg/ml; for inhibition at 10 µg/mL / inhibition at 32 µg/mL / inhibition at 500 µg/mL / inhibition at 100 µL/mL / inhibition at 1 µg/mL / inhibition at 3.2 µg/mL: read-out: Percent Reduction of CPE; for inhibition at 32 µg/mL: 32 μg/ml; for inhibition at 500 µg/mL: 500 μg/ml; for inhibition at 100 µL/mL: 100 μl/ml (so in the source); for IC50: read-out: ID50 (median inhibitory dose); for inhibition at 1 µg/mL: 1.0 μg/ml; for inhibition at 3.2 µg/mL: 3.2 μg/ml; for inhibition of HIV-1: in vitro
Protocol: These tests involved plating of susceptible human host cells which are syncytium-sensitive with and without virus in microculture plates, adding various concentrations of the test compound, incubating the plates for 9 days (during which time infected, non-drug treated control cells are largely or totally destroyed by the virus), and then determining the number of remaining viable cells using a colorimetric endpoint.
Tissue culture plates were incubated at 37° C. in a humidified, 5% CO2 atmosphere and observed microscopically for toxicity and/or cytopathogenic effect (CPE). At 2 and 6 days after infection, fresh dilutions of each test article were prepared from the frozen stock, and a 20 μl volume of each dilution (prepared as a 10× concentration was added to the appropriate wells of both infected and uninfected cells.
On the 9th day post-infection, the cells in each well were resuspended and a 100 μl sample of each cell suspension was removed for use in an MTT assay. A 20 μl volume of a 5 mg/ml solution of 3-(4,5-dimethylthiazol-2-yl)-2,5-diphenyltetrazolium bromide (MTT) was added to each 100 μl cell suspension, and the cells were incubated at 37° C. in 5% CO2 for 4 hours. […] A 100 μl volume of a solution of 10% sodium dodecyl sulfate in 0.01N hydrochloric acid wa added to each sample, and the samples were incubated overnight. The absorbance at 590 nm was determined for each sample using a Molecular Devices Vmax microplate reader. This assay detects drug-induced suppression of viral CPE, as well as drug cytotoxicity, by measuring the generation of MTT-formazan by surviving cells.
Assays were done in 96-well tissue culture plates. CEM cells were treated with polybrene at a concentration of 2 μg/ml, and an 80 μl volume of cells (1×10^4 cells) was dispensed into each well. A 100 μl volume of each test article dilution (prepared as a 2× concentration) was added to 5 wells of cells, and the cells were incubated at 37° C. for 1 hour. A frozen culture of HIV-1, strain HTLV-IIIB, was diluted in culture medium to a concentration of 5×10^4 TCID50 per ml, and a 20 μl volume (containing 10^3 TCID50 of virus) was added to 3 of the wells for each test article concentration. […] A 20 μl volume of normal culture medium was added to the remaining wells to allow evaluation of cytotoxicity. Each plate contained 6 wells of untreated, uninfected, cell control samples and 6 wells of untreated, infected, virus control samples. Dideoxycytidine (DDC) and dideoxyadenosine (DDA) were included as positive control compounds.

yeast α-glucosidase = biological target: T1, yeast α-glucosidase (Saccharomyces cerevisiae, UniProt P53341); assay: Alpha-glucosidase inhibition assay, pH 7.4; type: biochemical
T1 construct: purchased Sigma
Protocol: (§1) Yeast alpha-glucosidase and almond beta-glucosidase activities were measured by a modification of the method of Evans, et al., Phytochemistry 22, 768-770 (1983). The modifications included 1) assay of activities at pH 7.4 in HEPES (N-2-hydroxyethylpiperazine-N'-2-ethanesulfonic acid) buffer, 2) measurement in 96 well microtiter plates and 3) inclusion of 10% DMSO in control and test samples.
(§2) The release of p-nitrophenol from the substrate p-nitrophenylglycoside was measured spectrophotometrically in the presence and absence of test compound. Each assay included a known inhibitor of the enzyme as a standard.
To 100 μl 50 mM HEPES buffer, pH 7.4, in a microtiter plate, add 20 μl test compound in DMSO (DMSO alone in control), 40 μl (0.013 units) yeast alpha-glucosidase (Sigma) in HEPES buffer and pre-incubate at room temperature for 15 minutes. Add 40 μl 1.25 mM p-nitrophenyl-alpha-D-glucopyranoside (Sigma) in HEPES buffer, as substrate, and monitor absorbance change at 405 nm in Biotek EIA Auto-reader. Absorption change was measured at 15 to 25 minutes (reaction was linear for at least 30 minutes). Each sample was tested in triplicate. […] Deoxynojirimycin was used as standard inhibitor.

[1] = test system: Sheep choroid plexus (SCP) cells; assay: Toxicity in control wells (without virus) of the plaque reduction assay; type: cell-based; design: key: 0: no toxicity; 4: total cell lysates; settings: graded 0 to 4
Protocol: (§3) Sheep choroid plexus(SCP) cells were obtained from American Type Culture Collection (ATCC) catalogue number CRL 1700 and were routinely passaged in vitro in Dulbecco's Modified Eagles (DME) medium supplemented with 20% fetal bovine serum (FBS). SCP cells were passaged once per week at a 1:2 or 1:3 split ratio. Visna was titrated by plaque assay in six-well plates. Virus pools were stored at -70° C.
(§4) SCP cells were cultured in 6-well plates to confluence. Wells were washed two times with serum free Minimal Essential Medium (MEM) to remove FBS. 0.2 ml of virus was added per well in MEM supplemented with 4 mM glutamine and gentamycin. After 1 hour adsorption, the virus was aspirated from each well. The appropriate concentration of each compound in 5 ml of Medium 199 (M-199) supplemented with 2% lamb serum, 4 mM glutamine, 0.5% agarose and gentamycin was added to each well. […] To terminate the test: cultures were fixed in 10% formalin, the agar removed, the monolayers stained with 1% crystal violet and plaques counted. Each compound concentration was run in triplicate. […] 0 is no toxicity observed while 4 is total lysing of the cell monolayer.
Toxicity graded on 0 to 4 scale 0 = no toxicity, 4 = total cell lysates

[2] = in vivo; cited from earlier work
[3] = Assay for excretion of metabolites in urine of rats; type: in vivo, rat
visna virus = assay: Plaque reduction assay, inhibition of visna virus in vitro; type: cell-based; settings: Visna-maedi virus, read-out: Antiviral Activity (plaque reduction)
Protocol: as §3, §4

[4] = Preliminary pharmacokinetic tests in rats, total radioactivity in the blood; settings: rat
[5] = Solubility in aqueous solvent (antiviral test); type: physicochemical
almond β-glucosidase [6] = assay: Beta-glucosidase inhibition assay, pH 4.8; type: biochemical; settings: read-out: Enzyme Inhibition-IC50, Almond β-Glucosidase pH 4.8
Protocol: as §1, §2
To 100 μl 50 mM sodium citrate buffer, pH 4.8, in a microtiter plate, add 15 μl test compound in DMSO (DMSO alone in control), 20 μl (0.017 units) beta-glucosidase (Sigma) in citrate buffer and pre-incubate at room temperature for 15 minutes. Add 25 μl 2.50 mM p-nitrophenyl-beta-D-glucopyranside in citrate buffer, as substrate. […] Add 50 μl 0.4M NaOH. Read absorption change at 405 nm in a Biotek EIA Autoreader. Each sample was tested in triplicate. […] Castanospermine was used as standard inhibitor.

almond β-glucosidase [7] = assay: Beta-glucosidase inhibition assay, pH 7.4; type: biochemical; settings: for IC50: pH 7.4, read-out: Enzyme Inhibition-IC50, Almond β-Glucosidase pH 7.4; for Inhibition Index (first, head is drawing 3) / Inhibition Index (second, head is drawing 4): ratio of IC50 values; for Inhibition Index (first, head is drawing 3): numerically almond pH 4.8 / almond pH 7.4; for Inhibition Index (second, head is drawing 4): numerically yeast α pH 7.4 / almond β pH 7.4
Protocol: as §1, §2
To 100 μl 50 mM HEPES buffer, pH 7.4, in a microtiter plate, add 20 μl test compound in DMSO (DMSO alone in control), 40 μl (0.136 units) beta-glucosidase (Sigma) in HEPES buffer and pre-incubate at room temperature for 15 minutes. Add 40 μl 1.25 mM p-nitrophenyl-beta-D-glucopyranoside in HEPES buffer, as substrate and monitor absorbance change at 405 nm in a Biotek EIA Autoreader. Absorption change was measured at 15 to 25 minutes (reaction is linear for at least 30 minutes). Each sample was tested in triplicate. […] Castanospermine was used as standard inhibitor.

[8] = rat
glucosidase I = settings: Schweden et al.; compared to N-methyl- and N-butyl-derivatives; cited from earlier work
α-glycosidase = settings: literature; cited from earlier work
[9] = HIV-1, CEM cells, reduction of CPE

T1 sequence (P53341 whole entry): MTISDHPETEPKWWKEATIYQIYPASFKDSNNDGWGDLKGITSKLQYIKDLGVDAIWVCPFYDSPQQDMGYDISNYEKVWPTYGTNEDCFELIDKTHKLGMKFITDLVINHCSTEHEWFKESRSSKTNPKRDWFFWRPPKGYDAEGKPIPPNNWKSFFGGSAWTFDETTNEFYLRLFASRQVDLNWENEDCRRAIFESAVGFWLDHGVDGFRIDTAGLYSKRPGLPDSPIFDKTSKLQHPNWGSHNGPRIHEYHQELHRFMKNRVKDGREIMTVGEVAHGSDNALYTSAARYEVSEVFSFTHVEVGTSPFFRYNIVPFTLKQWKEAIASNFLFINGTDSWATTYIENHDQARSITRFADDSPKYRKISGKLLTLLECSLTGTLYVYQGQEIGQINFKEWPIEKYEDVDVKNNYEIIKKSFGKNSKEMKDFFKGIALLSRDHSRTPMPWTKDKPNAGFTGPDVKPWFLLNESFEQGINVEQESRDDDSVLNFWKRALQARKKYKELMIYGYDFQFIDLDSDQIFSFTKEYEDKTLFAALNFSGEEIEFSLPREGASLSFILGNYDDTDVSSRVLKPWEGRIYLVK

CCCCCCCCCCCCN1C[C@H](O)[C@@H](O)[C@H](O)[C@H]1CO [N-dodecyl-1-deoxynojirimycin]
effect on trimming glucosidase I (trimming glucosidase I): to a lesser degree than deoxynojirimycin or N-methyl-deoxynojirimycin | effect on trimming glucosidase II (trimming glucosidase II): to a lesser degree than deoxynojirimycin or N-methyl-deoxynojirimycin

OC[C@H]1NC[C@@H](O)[C@@H]1O (single isomer, unassigned) [L-enantiomer, 1,4-dideoxy-1,4-imino-arabinitol]
glucosidase inhibition (glucosidase): known glucosidase inhibitors | HIV inhibitory / antiviral activity (HIV): strong HIV inhibitory activity

CCCCN1C[C@H](O)[C@@H](O)[C@H](O)[C@H]1CO [N-Butyl-DNJ, Nbutyl-deoxynojirimycin, reference compound]
inhibition at 10 µg/mL (HIV-1, strain HTLV-IIIB): 42.6% | inhibition at 32 µg/mL (HIV-1, strain HTLV-IIIB): 49.8% | inhibition at 500 µg/mL (HIV-1, strain HTLV-IIIB): 50.7% | inhibition at 100 µL/mL (HIV-1, strain HTLV-IIIB): 53.3% | IC50 (HIV-1, strain HTLV-IIIB; [9]): 34 µg/mL (≈ 155 µM) | IC50 (yeast α-glucosidase): 536 µM | Toxicity ([1]; 10 μM): 0 | Toxicity ([1]; 1 mM): 0 | gastrointestinal side effects [2]: gastrointestinal side effects seen | metabolism [3]: not metabolized | inhibition at 10 µM (visna virus; 10 μM): 57% | inhibition at 1000 µM (visna virus; 1 mM): 100% | t1/2 in vivo [4]: 1.24 h | Solubility [5]: Solubility problem; compound did not completely dissolve | reduction of infectious viral particles (HIV; Karpas et al., at nontoxic concentrations): greater than five | HIV inhibitory / antiviral activity (HIV): significant antiviral activity

OC[C@H]1NC[C@@H](O)[C@@H]1O (single isomer, unassigned) [D-enantiomer, 1,4-dideoxy-1,4-imino-arabinitol]
glucosidase inhibition (glucosidase): known glucosidase inhibitors | HIV inhibitory / antiviral activity (HIV): very little effect on HIV replication

CCCCCCCCCN1C[C@H](O)[C@@H](O)[C@H](O)[C@H]1CO [Example 3, 1,5(Nonylimino)-1,5-dideoxy-D-glucitol]
IC50 (almond β-glucosidase [6]): 196 µM | ID50 compared to N-butyl-DNJ (HIV-1, strain HTLV-IIIB; HIV-1, CEM cells): advantageous reduction in ID50 | IC50 (HIV-1, strain HTLV-IIIB): 6.9 µg/mL (≈ 23.8 µM) | inhibition at 1 µg/mL (HIV-1, strain HTLV-IIIB): 0% | inhibition at 3.2 µg/mL (HIV-1, strain HTLV-IIIB): 25.7% | inhibition at 10 µg/mL (HIV-1, strain HTLV-IIIB): 62.5% | inhibition at 32 µg/mL (HIV-1, strain HTLV-IIIB): 28.9% | inhibition of HIV-1 (HIV-1, strain HTLV-IIIB): demonstrated to inhibit HIV-1 | IC50 (yeast α-glucosidase): 267 µM | Toxicity ([1]; 10 μM): 0 | Toxicity ([1]; 1 mM): 4 | metabolism [3]: metabolized | inhibition at 10 µM (visna virus): 69% | inhibition at 1000 µM (visna virus): 100% | IC50 (almond β-glucosidase [7]): 18 µM | Inhibition Index (first, head is drawing 3) (almond β-glucosidase [7]): 10.8 | Inhibition Index (second, head is drawing 4) (almond β-glucosidase [7]): 14.8 | t1/2 in vivo [8]: 6.24 h

CCCCCCN1C[C@H](O)[C@@H](O)[C@H](O)[C@H]1CO [Example 2, 1,5-(Hexylimino)-1,5-dideoxy-D-glucitol]
IC50 (almond β-glucosidase [6]): 144 µM | ID50 compared to N-butyl-DNJ (HIV-1, strain HTLV-IIIB; HIV-1, CEM cells): advantageous reduction in ID50 | inhibition at 1 µg/mL (HIV-1, strain HTLV-IIIB): 0% | inhibition at 3.2 µg/mL (HIV-1, strain HTLV-IIIB): 15.6% | inhibition at 10 µg/mL (HIV-1, strain HTLV-IIIB): 65.6% | inhibition at 32 µg/mL (HIV-1, strain HTLV-IIIB): 68% | inhibition at 500 µg/mL (HIV-1, strain HTLV-IIIB): 147% | inhibition at 100 µL/mL (HIV-1, strain HTLV-IIIB): 65.1% | IC50 (HIV-1, strain HTLV-IIIB; [9]): 7.3 µg/mL (≈ 29.5 µM) | inhibition of HIV-1 (HIV-1, strain HTLV-IIIB): demonstrated to inhibit HIV-1 | IC50 (yeast α-glucosidase; pH 7.4, read-out: Enzyme Inhibition-IC50, Yeast α-Glucosidase pH 7.4): 371 µM | Ki, glucosidase I (glucosidase I): greater Ki values than the N-methyl- and N-butyl-derivatives | Toxicity ([1]; 1 μM): 2 | Toxicity ([1]; 10 μM): 0 | inhibition at 1 µM (visna virus; 1 μM): 100% | inhibition at 10 µM (visna virus; 10 μM): 94% | Solubility [5]: Solubility problem; compound did not completely dissolve | IC50 (almond β-glucosidase [7]): 4.8 µM | Inhibition Index (first, head is drawing 3) (almond β-glucosidase [7]): 30 | Inhibition Index (second, head is drawing 4) (almond β-glucosidase [7]): 77.3

OC[C@H]1NCC[C@@H](O)[C@@H]1O [fagomine]
HIV inhibitory / antiviral activity (HIV): no HIV inhibition was observed | α-glycosidase inhibitory activity (α-glycosidase): known to have α-glycosidase inhibitory activity
